Experimental data as given in PubChem BioAssay AID1259407 (Chemical Carcinogenesis Research Information System (CCRIS), 2018).
The source made the active and inactive calls. How the calls were made is not given here.

Tested on: CCRIS mutagenicity, Ames/micronucleus/aberration tests
Assay: CCRIS mutagenicity studies
[1] = Test System: AMES SALMONELLA TYPHIMURIUM, Strain/Indicator: TA98, Metabolic Activation: NONE, Method: PREINCUBATION
[2] = Test System: AMES SALMONELLA TYPHIMURIUM, Strain/Indicator: TA100, Metabolic Activation: NONE, Method: PREINCUBATION
[3] = Test System: AMES SALMONELLA TYPHIMURIUM, Strain/Indicator: TA1535, Metabolic Activation: NONE, Method: PREINCUBATION
[4] = Test System: AMES SALMONELLA TYPHIMURIUM, Strain/Indicator: TA98, Metabolic Activation: NONE, Method: STANDARD PLATE
[5] = Test System: AMES SALMONELLA TYPHIMURIUM, Strain/Indicator: TA98, Metabolic Activation: RAT, LIVER, S-9, AROCLOR 1254, Method: STANDARD PLATE
[6] = Test System: AMES SALMONELLA TYPHIMURIUM, Strain/Indicator: TA100, Metabolic Activation: NONE, Method: STANDARD PLATE
[7] = Test System: AMES SALMONELLA TYPHIMURIUM, Strain/Indicator: TA100, Metabolic Activation: RAT, LIVER, S-9, AROCLOR 1254, Method: STANDARD PLATE
[8] = Test System: AMES SALMONELLA TYPHIMURIUM, Strain/Indicator: TA1535, Metabolic Activation: NONE, Method: STANDARD PLATE
[9] = Test System: AMES SALMONELLA TYPHIMURIUM, Strain/Indicator: TA1535, Metabolic Activation: RAT, LIVER, S-9, AROCLOR 1254, Method: STANDARD PLATE
[10] = Test System: AMES SALMONELLA TYPHIMURIUM, Strain/Indicator: TA1537, Metabolic Activation: NONE, Method: STANDARD PLATE
[11] = Test System: AMES SALMONELLA TYPHIMURIUM, Strain/Indicator: TA1537, Metabolic Activation: RAT, LIVER, S-9, AROCLOR 1254, Method: STANDARD PLATE
[12] = Test System: AMES SALMONELLA TYPHIMURIUM, Strain/Indicator: TA1538, Metabolic Activation: NONE, Method: STANDARD PLATE
[13] = Test System: AMES SALMONELLA TYPHIMURIUM, Strain/Indicator: TA1538, Metabolic Activation: RAT, LIVER, S-9, AROCLOR 1254, Method: STANDARD PLATE

Measured: mutagenic call

CC(=O)Nc1ccc(N=Nc2ccc(N(C)C)cc2)cc1
active: Test System: AMES SALMONELLA TYPHIMURIUM, Strain/Indicator: TA98, Metabolic Activation: RAT, LIVER, S-9, POLYCHLORINATED BIPHENYLS, Method: PREINCUBATION active; positive
inactive: Test System: AMES SALMONELLA TYPHIMURIUM, Strain/Indicator: TA100, Metabolic Activation: RAT, LIVER, S-9, POLYCHLORINATED BIPHENYLS, Method: PREINCUBATION inactive; negative

COc1ccc(O)c(C(C)(C)C)c1
inactive: Test System: AMES SALMONELLA TYPHIMURIUM, Strain/Indicator: TA97, Metabolic Activation: NONE, Method: PREINCUBATION inactive; negative | Test System: AMES SALMONELLA TYPHIMURIUM, Strain/Indicator: TA97, Metabolic Activation: RAT, LIVER, S-9, PCB, Method: PREINCUBATION inactive; negative | [1] inactive; negative | Test System: AMES SALMONELLA TYPHIMURIUM, Strain/Indicator: TA98, Metabolic Activation: RAT, LIVER, S-9, PCB, Method: PREINCUBATION inactive; negative | [2] inactive; negative | Test System: AMES SALMONELLA TYPHIMURIUM, Strain/Indicator: TA100, Metabolic Activation: RAT, LIVER, S-9, PCB, Method: PREINCUBATION inactive; negative | Test System: AMES SALMONELLA TYPHIMURIUM, Strain/Indicator: TA102, Metabolic Activation: NONE, Method: PREINCUBATION inactive; negative | Test System: AMES SALMONELLA TYPHIMURIUM, Strain/Indicator: TA102, Metabolic Activation: RAT, LIVER, S-9, PCB, Method: PREINCUBATION inactive; negative

CC(O)CN(CC(C)O)CC(C)O (configuration not stated) (tested in a mixture with another compound)
inactive: [1] inactive; negative | Test System: AMES SALMONELLA TYPHIMURIUM, Strain/Indicator: TA98, Metabolic Activation: RAT LIVER S-9, AROCLOR 1254, 10%, Method: PREINCUBATION inactive; negative | [2] inactive; negative | Test System: AMES SALMONELLA TYPHIMURIUM, Strain/Indicator: TA100, Metabolic Activation: RAT LIVER S-9, AROCLOR 1254, 10%, Method: PREINCUBATION inactive; negative | [3] inactive; negative | Test System: AMES SALMONELLA TYPHIMURIUM, Strain/Indicator: TA1535, Metabolic Activation: RAT LIVER S-9, AROCLOR 1254, 10%, Method: PREINCUBATION inactive; negative | Test System: AMES SALMONELLA TYPHIMURIUM, Strain/Indicator: TA1537, Metabolic Activation: NONE, Method: PREINCUBATION inactive; negative | Test System: AMES SALMONELLA TYPHIMURIUM, Strain/Indicator: TA1537, Metabolic Activation: RAT LIVER S-9, AROCLOR 1254, 10%, Method: PREINCUBATION inactive; negative | Test System: UDS RAT HEPATOCYTES, Strain/Indicator: THYMIDINE INCORPORATION, Metabolic Activation: NONE, Method: AUTORADIOGRAPHY inactive; negative

CCCCCCOCC1CO1 (configuration not stated)
inactive: Test System: AMES SALMONELLA TYPHIMURIUM, Strain/Indicator: TA100, Metabolic Activation: RAT, LIVER, S-9, AROCLOR 1254 (10%), Method: PREINCUBATION inactive; negative
active: [2] active; positive | Test System: AMES SALMONELLA TYPHIMURIUM, Strain/Indicator: TA1535, Metabolic Activation: HAMSTER, LIVER, S-9, AROCLOR 1254 (10%), Method: PREINCUBATION active; positive | [3] active; positive | Test System: AMES SALMONELLA TYPHIMURIUM, Strain/Indicator: TA1535, Metabolic Activation: RAT, LIVER, S-9, AROCLOR 1254 (10%), Method: PREINCUBATION active; positive

O=Nn1cnc(CC(=O)NO)c1
active: [1] active; positive | [2] active; positive

COc1cc(N)c([N+](=O)[O-])cc1N
inactive: [6] inactive; negative | [8] inactive; negative | [9] inactive; negative
active: [4] active; positive | [5] active; positive | [7] active; positive | [10] active; positive | [11] active; positive | [12] active; positive | [13] active; positive

O=C([O-])[C@H](O)[C@@H](O)[C@H](O)[C@H](O)CO.O=C([O-])[C@H](O)[C@@H](O)[C@H](O)[C@H](O)CO.[Mn+2]
inactive: [4] inactive; negative | [5] inactive; negative | [6] inactive; negative | [7] inactive; negative | [8] inactive; negative | [9] inactive; negative | [10] inactive; negative | [11] inactive; negative | [12] inactive; negative | [13] inactive; negative | Test System: E. COLI, Strain/Indicator: WP2, Metabolic Activation: NONE, Method: STANDARD PLATE inactive; negative | Test System: E. COLI, Strain/Indicator: WP2, Metabolic Activation: RAT, LIVER, S-9, AROCLOR 1254, Method: STANDARD PLATE inactive; negative

O=c1cc(CO)occ1O
active: End Point: IN VIVO MICRONUCLEUS, Test System: PERIPHERAL BLOOD RETICULOCYTES, Species: RAT, Strain/Sex: FISHER 344 OR SD/MALE, Route: ORAL OR IP active; positive | End Point: In vivo micronucleus, Test System: Mononucleated hepatocytes/1000 hepatocytes, Species: Mouse, Strain/Sex: Ddy/Male, Route: Oral active; positive (dose related increase, significant only at high dose) | End Point: In vivo micronucleus, Test System: Mononucleated hepatocytes/1000 hepatocytes, Species: Rat, Strain/Sex: F344/Male, Route: Oral active; positive (dose related increase, significant only at high dose) | [1] active; positive | [4] active; positive | Test System: AMES SALMONELLA TYPHIMURIUM, Strain/Indicator: TA98, Metabolic Activation: RAT, LIVER, S-9, AROCLOR 1254, Method: PREINCUBATION active; positive | [5] active; positive | [6] active; positive | Test System: AMES SALMONELLA TYPHIMURIUM, Strain/Indicator: TA100, Metabolic Activation: RAT, LIVER, MICROSOMES, PHENOBARBITAL, Method: STANDARD PLATE active; positive | [7] active; positive | Test System: Ames Salmonella typhimurium, Strain/Indicator: TA100, Metabolic Activation: None, Method: Preincubation active; positive | Test System: Ames Salmonella typhimurium, Strain/Indicator: TA100, Metabolic Activation: Rat, Liver, S-9, Phenobarbital and 6-naphthoflavone, Method: Preincubation active; positive
inactive: End Point: IN VIVO MICRONUCLEUS, Test System: HEPATOCYTES, Species: RAT, Strain/Sex: FISHER 344 OR SD/MALE, Route: ORAL OR IP inactive; negative | Test System: AMES SALMONELLA TYPHIMURIUM, Strain/Indicator: TA100, Metabolic Activation: RAT, LIVER, S-9, AROCLOR 1254, Method: PREINCUBATION inactive; negative | Test System: AMES SALMONELLA TYPHIMURIUM, Strain/Indicator: TA100, Metabolic Activation: RAT, LIVER, S-9, PHENOBARBITAL, Method: PREINCUBATION inactive; negative

CC(C)(N=NC(C)(C)C(=N)N)C(=N)N
active: [1] active; positive | Test System: AMES SALMONELLA TYPHIMURIUM, Strain/Indicator: TA98, Metabolic Activation: RAT, LIVER, S-9, PHENOBARBITAL AND 5,6-BENZOFLAVONE, Method: PREINCUBATION active; positive | [2] active; positive | Test System: AMES SALMONELLA TYPHIMURIUM, Strain/Indicator: TA100, Metabolic Activation: RAT, LIVER, S-9, PHENOBARBITAL AND 5,6-BENZOFLAVONE, Method: PREINCUBATION active; positive
